Here are results for one molecule from patent US11197856B2, “Bicyclic compounds and methods for their use in treating autism” (priority 2013, dated 2021).

For assay [1], the system named is BAX. Nature of the assay: PBBI in rats: BAX Western blotting. In kind it is in vivo. Conditions: 24 hr, 3 and 7 days after PBBI. An excerpt:
The unilateral frontal PBBI model, which mimics the ballistic dynamics of a bullet or fragment wound to the head (Williams, 2003; Williams, 2006), was induced by stereotactic insertion of a custom probe through the right frontal cortex. A temporary cavity was formed by the rapid inflation/deflation (i.e. <40 msec) of an elastic balloon attached to the end of the probe. The PBBI apparatus consisted of a computer-controlled hydraulic pressure generator (Mitre Corp McLean, Va.), a PBBI probe and a stereotaxic frame equipped with a custom-designed probe holder as previously described (Lu, 2009; Williams, 2003). The injury severity was determined by the size of the balloon under control of the computerized hydraulic pressure. The balloon diameter calibrated to 0.63 cm expansion represented 10% of the total rat brain volume thus expressing a 10% PBBI. All surgeries were done under anaesthesia. Groups tested: Sham+vehicle, PBBI+vehicle, PBBI+cG-2-AllylP (30 mg/kg by oral gavage, 30 min post-injury, and again once daily until endpoint). AU procedures were approved by the Institutional Animal Care and Use Committee of WRAIR. Animals were housed in a facility accredited by the AAALAC. […]
Samples were analysed at 24 hr and 3 and 7 days post-injury for all groups (sham+vehicle, PBBI+vehicle, PBBI+cG-2-AllylP). […]

Assay [2] relates to genetic markers related to neuroplasticity. Nature of the assay: PBBI in rats: neuroplasticity mRNA arrays. In kind it is in vivo. An excerpt:
(§1) The unilateral frontal PBBI model, which mimics the ballistic dynamics of a bullet or fragment wound to the head (Williams, 2003; Williams, 2006), was induced by stereotactic insertion of a custom probe through the right frontal cortex. A temporary cavity was formed by the rapid inflation/deflation (i.e. <40 msec) of an elastic balloon attached to the end of the probe. The PBBI apparatus consisted of a computer-controlled hydraulic pressure generator (Mitre Corp McLean, Va.), a PBBI probe and a stereotaxic frame equipped with a custom-designed probe holder as previously described (Lu, 2009; Williams, 2003). The injury severity was determined by the size of the balloon under control of the computerized hydraulic pressure. The balloon diameter calibrated to 0.63 cm expansion represented 10% of the total rat brain volume thus expressing a 10% PBBI. All surgeries were done under anaesthesia. Groups tested: Sham+vehicle, PBBI+vehicle, PBBI+cG-2-AllylP (30 mg/kg by oral gavage, 30 min post-injury, and again once daily until endpoint). AU procedures were approved by the Institutional Animal Care and Use Committee of WRAIR. Animals were housed in a facility accredited by the AAALAC.
(§2) cG-2-AllylP (or vehicle) was administered to the animals via oral gavage at a dose of 30 mg/kg.
cDNA was generated. From total RNA from individual animals using random primers. cDNA was plated unto a targeted PCR array produced by SA Biosciences and product was detected using SyBr green fluorescence. Ct levels were normalized to beta actin. Injury results were compared to sham to evaluate relative quantities (RQ) (n=6 per group).

Assay [3] has as its system Krox24. Briefly: Krox24 immunohistochemical staining of hippocampus. In kind it is in vivo, male Wistar rats. The conditions noted are these: CA1-2 regions; vs vehicle. On the procedure:
Aged rats (male Wistar rats, 18-20 months old) were divided into four groups: two vehicle-treated (groups 1 and 3) and two G-2-AllylP treated (groups 2 and 4) (all groups n=6-8). Cyclic G-2-AllylP was synthesised by the Department of Medicinal Chemistry and dissolved in normal saline before the treatment. On day 1 a single dose of cyclic G-2-AllylP was given centrally (20 ng/animal, i.c.v.) to the animals in groups 2 and 4; saline was administered to groups 1 and 3. The memory tests using Novel Object Recognition Test started either on day 3 (groups 1 and 2) or 24 (groups 3 and 4) after the treatment. On the completion of the NORT, the rats were killed with an overdose of sodium pentobarbital and were perfused transcardially with normal saline followed by 10% formalin. Tissues collected at day 7 in groups 1 and 2, and at day 28 from groups 3 and 4. The brains were kept in the same fixative for a minimum of 2 days before being processed using a standard paraffin embedding procedure. Briefly, small blocks (10×10×3 mm) of tissue were fixed for up to 24 hrs. The blocks were then infiltrated and embedded with paraffin and cut in ribbons and mounted on slides. Slides were then stored until immunostaining was commenced. Synaptogenesis in brain tissue was examined using immunohistochemical staining.
The neuronal transcript factor Krox24 staining is used as a marker for neuronal plasticity. […]

Assay [4] relates to interleukin-6. Briefly: PBBI in rats: IL-6 ELISA. In kind it is in vivo.
Text: as §1, §2
Target proteins were quantified with interleukin 1 beta (“IL-1beta”) (GenWay Biotech GWB-SKR107) and interleukin-6 (“IL-6”) (GenWay Biotech GWB-ZZD100) ELISAs according to manufacturer's instructions. Levels were calculated and normalized to total protein concentration as determined by BCA assay (n=9-10 per group).

Assay [5] deals with MeCP2-/y mice. Briefly: Heart rate measurements (tail clip sensor). In kind it is in vivo. Conditions: 8 weeks old. The method, then:
Real time cardiac pulse rate is measured using a tail clip sensor (Mouse OX Oximeter-Oakmont, Pa.). Mice are not anesthetized but physically restrained in a fitted open plastic tube. Prior to the recording session the tube is placed overnight in the cages housing the experimental animals to allow habituation. Body temperature is maintained at ˜82-84° F. throughout the recording time. We record 3 trials of 15 minutes for each mouse, mice are 8 weeks old and treated with vehicle or cG-2-AllylP from PIS.
To examine heart rate abnormalities in MeCP2−/y mice and the effect of cG-2-AllylP treatment, we monitor real time cardiac pulse rate in non-anesthetized wild type and MeCP2−/y animals treated with vehicle or cG-2-AllylP.

With `C=CC[C@]12CCCN1C(=O)CNC2=O` [cG-2-AllylP, (8aS)-Allyl-hexahydropyrrolo[1,2-a]pyrazine-1,4-dione], the BAX levels result in assay [1] is recorded as “did not significantly alter BAX”. In addition, in assay [2] (24 hr. time point after PBBI), the “Gria 4 mRNA expression” value is on record as “significantly increased Gria 4”. In assay [2] (after PBBI), the “BDNF mRNA expression (trend)” value is given as “decreased BDNF”, the “Crem mRNA expression (trend)” value was “decreased Crem”, the “NTF3 mRNA expression (trend)” value is “decreased NTF3” and the “NTF4 mRNA expression (trend)” value was “decreased NTF4”. In assay [2] (after PBBI), the “Pcdh8 mRNA expression (trend)” value is given as “decreased Pcdh8”, the “Pim1 mRNA expression (trend)” value is reported as “decreased Pim1” and the “Ppp3ca mRNA expression (trend)” value is “increased Ppp3ca”. Further, the “density of the Krox24 staining” value in assay [3] was “trend towards the increased density”. Moreover, in assay [4] (24 hrs. after PBBI, 30 mg/kg oral gavage), the IL-6 levels result is on record as “decreased IL-6 levels”. In addition, in assay [4] (3 days after PBBI, 30 mg/kg oral gavage once daily), the IL-6 levels entry is listed as “little effect at 3 days”. The IL-6 levels entry in assay [4] (7 days after PBBI, 30 mg/kg oral gavage once daily) is “decreased IL-6 levels”. Besides, the “occurrence of irregular heart rate with a lower average rate” value in assay [5] was “significantly reduced”.
